Reference: patent US5216001A, “Indole derivatives” (H. Lunbeck A/S, priority 1990, dated 1993)
Like-named read-outs stand apart in the source and are kept apart here.

Tests used:
[1] = target: T1, serotonin S2 (5-HT2) receptors (Rattus norvegicus, UniProt P14842); test: inhibition of 3H-ketanserin binding to serotonin S2 (5-HT2) receptors in rat cortex in vitro; settings: 3H-ketanserin 0.5 nM, rat cortex membranes, read-out: Binding IC50, 3H Ket.
T1 construct: cortical tissue is dissected and weighed; from tissue; host or cells: cerebral cortex membranes of male Wistar (Mol:Wist) rats
Protocol: Method in Hyttel, Pharmacology & Toxicology, 61, 126-129. 1987.
Male Wistar (Mol:Wist) rats (125-250 g) are sacrifices and cortical tissue is dissected and weighed. The tissue is homogenized (Ultra Turrax, 10 sec.) in 10 ml of ice-cold 50 mM tris buffer pH 7.7 (at 25° C.). The centrifuge glassware used in this step has been rinsed by sonication for 10 min. in ethanol. The homogenate is centrifuged twice at 20,000 g for 10 min. at 4° C. with rehomogenization of the pellet in 10 ml ice-cold buffer. The final pellet is homogenized in 500 vol (w/v) ice-cold buffer.
Incubation tubes kept on ice in triplicate receive 100 μl of drug solution in water (or water for total binding) and 2000 μl of tissue suspension (final tissue content corresponds to 4 mg original tissue). […] After incubation for 30 min. the samples are filtered under vacuum (0-50 mBar) through Whatman GF/F filters (25 mm). The tubes are rinsed with 5 ml ice-cold buffer which are then poured on the filters. Thereafter, the filters are washed with 2×5 ml of buffer. The filters are placed in counting vials and 4 ml of appropriate scintillation fluid (e.g., Picofluor™15) are added. After shaking for 1 h and storage 2 hrs in the dark the content of radioactivity is determined by liquid scintillation counting. Specific binding is obtained by subtracting the nonspecific binding in the presence of 1 μM mianserin. For determination of the inhibition of binding five concentrations of drugs covering 3 decades are used.
The IC50 value is determined as the concentration at which the binding is 50% of the total binding in control samples minus the nonspecific binding in the presence of 1 μM mianserin.

α1 adrenoceptors = test: inhibition of 3H-prazosin binding to α1 adrenoceptors in rat brain in vitro; settings: 3H-prazosin 0.25 nM, rat brain membranes, read-out: Binding IC50, 3H Praz.
Protocol: INHIBITION OF ^3 H-PRAZOSIN BINDING TO α1 ADRENOCEPTORS IN RAT BRAIN IN VITRO
Method and results in Hyttel and Larsen, J. Neurochem, 44, 1615-1622, 1985; Skarsfeldt and Hyttel, Eur. J. Pharmacol. 125, 323-340, 1986.
(§1) Male Wistar (Mol:Wist) rats (125-200 g) are sacrificed and brain tissue is dissected and weighed. The tissue is homogenized (Ultra Turrax, 10 sec.) in 10 ml of ice-cold 50 nM Tris buffer pH 7.7 (at 25° C.). The homogenate is centrifuged twice at 20,000 g for 10 min. at 4° C. with rehomogenization of the pellet in 10 ml ice-cold buffer. The final pellet is homogenized in 400 vol (w/v) ice-cold buffer.
Incubation tubes kept on ice in triplicate receive 100 μl of drug solution in water (or water for total binding) and 4000 μl of tissue suspension (final tissue content corresponds to 10 mg original tissue). The binding experiment is initiated by addition of 100 μl of ^3 H-Prazosin (final concentration 0.25 nM) and by placing the tubes in a 25° C. water bath. After incubation for 20 min. the samples are filtered under vacuum (0-50 mBar) through Whatman GF/F filters (25 mm). The tubes are rinsed with 5 ml ice-cold buffer which then are poured on the filters. Thereafter, the filters are washed with 5 ml of buffer. The filters are placed in counting vials and 4 ml of appropriate scintillation fluid (e.g. Picofluor™15) are added. After shaking for 1 h and storage 2 hrs in the dark the content of radioactivity is determined by liquid scintillation counting. Specific binding is obtained by subtracting the nonspecific binding in the presence of 1 μM of Prazosin.
(§2) For determination of the inhibition of binding five concentrations of drugs covering 3 decades are used.
The measured cpm are plotted against drug concentration on semilogarithmic paper and the best fitting S-shaped curve is drawn. The IC50 value is determined as the concentration at which the binding is 50% of the total binding in control samples minus the nonspecific binding in the presence of 1 μM of Prazosin. ^3 H-Prazosin=[furoyl-5-^3 H]-Prazosin from New England Nuclear, specific activity approximately 20 Ci/mmol.

dopamine D-2 receptors = target: T2, dopamine D-2 receptors (Rattus norvegicus, UniProt P61169); test: inhibition of 3H-spiperone binding to dopamine D-2 receptors in rat corpus striatum in vitro
T2 construct: striatal tissue is dissected and weighed; from tissue; host or cells: corpus striatum membranes of male Wistar rats
Protocol: INHIBITION OF ^3 H-SPIPERONE BINDING TO DOPAMINE D-2 RECEPTORS IN RAT CORPUS STRIATUM IN VITRO
By this method the inhibition by drugs of the binding of ^3 H-spiperone (0.5 nM) to dopamine D-2 receptors in membranes from rat corpus striatum is determined in vitro. Method and results in Hyttel and Larsen, J. Neurochem, 44, 1615-1622, 1985).
as §1, with “(Mol:Wistar)” for “(Mol:Wist)”, “(125-250” for “(125-200”, “striatal” for “brain”, “mM K-phosphate” for “nM Tris”, “7.4” for “7.7”, “1300” for “400”
Incubation tubes kept on ice in triplicate receive 100 μl of drug solution in water (or water for total binding) and 4000 μl of tissue suspension (final tissue content corresponds to 3.08 mg original tissue). The binding experimental is initiated by addition of 100 μl of ^3 H-spiperone (final concentration 0.5 nM) and by placing the tubes in a 37° C. water bath. After incubation for 10 min. the samples are filtered under vacuum (0-50 mBar) through Whatman GF/F filters (25 mm). The tubes are rinsed with 5 ml ice-cold buffer which are then poured on the filters. Thereafter, the filters are washed with 2×5 ml of buffer. The filters are placed in counting vials and 4 ml of appropriate scintillation fluid (e.g. Picofluor ™15) are added. After shaking for 1 h and storage 2 hrs in the dark the content of radioactivity is determined by liquid scintillation counting. Specific binding is obtained by subtracting the nonspecific binding in the presence of 10 μM of 6,7-ADTN.
as §2
England, specific activity 15-25 Ci/mmol.

[2] = 3H-spiperone 0.5 nM, rat corpus striatum membranes, in vitro, read-out: Binding IC50, 3H Spi.

T1 sequence (P14842 whole entry): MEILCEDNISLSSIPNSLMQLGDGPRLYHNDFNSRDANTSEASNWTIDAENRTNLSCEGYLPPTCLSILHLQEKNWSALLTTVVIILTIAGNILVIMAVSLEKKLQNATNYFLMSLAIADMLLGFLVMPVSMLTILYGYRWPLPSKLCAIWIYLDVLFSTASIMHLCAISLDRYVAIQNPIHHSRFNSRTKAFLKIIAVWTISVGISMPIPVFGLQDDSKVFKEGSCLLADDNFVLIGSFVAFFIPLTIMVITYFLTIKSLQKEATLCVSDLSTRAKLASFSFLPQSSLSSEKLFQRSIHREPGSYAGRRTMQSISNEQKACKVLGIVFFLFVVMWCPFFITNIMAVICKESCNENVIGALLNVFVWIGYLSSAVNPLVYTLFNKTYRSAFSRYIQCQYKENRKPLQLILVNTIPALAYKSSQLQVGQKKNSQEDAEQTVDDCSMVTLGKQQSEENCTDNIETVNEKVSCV
T2 sequence (P61169 whole entry): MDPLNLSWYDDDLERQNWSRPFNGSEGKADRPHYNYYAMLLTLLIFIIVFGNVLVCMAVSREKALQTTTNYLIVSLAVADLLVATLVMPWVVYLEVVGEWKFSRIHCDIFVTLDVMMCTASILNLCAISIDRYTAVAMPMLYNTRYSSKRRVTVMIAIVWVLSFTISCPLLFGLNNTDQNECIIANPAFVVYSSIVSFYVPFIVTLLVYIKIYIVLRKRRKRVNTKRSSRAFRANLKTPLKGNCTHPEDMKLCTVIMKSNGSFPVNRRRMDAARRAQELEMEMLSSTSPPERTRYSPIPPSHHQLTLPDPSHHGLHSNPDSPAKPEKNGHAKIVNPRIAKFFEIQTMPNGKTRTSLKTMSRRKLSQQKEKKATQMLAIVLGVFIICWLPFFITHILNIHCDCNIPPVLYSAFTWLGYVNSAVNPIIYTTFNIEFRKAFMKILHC

Row | SMILES | IC50 [1] [µM] | IC50 (α1 adrenoceptors) [µM] | IC50 (dopamine D-2 receptors) [µM] | IC50 (dopamine D-2 receptors; [2]) [µM]
1 | CC(C)N1CCN(CCN2CC=C(c3cn(-c4ccc(F)cc4)c4cc(Cl)ccc34)CC2)C1=O [Compound 2a, 6-chloro-1-(4-fluorophenyl)-3-[1-[2-[3-(2-propyl)-2-imidazolidinon-1-yl]ethyl]-1,2,3,6-tetrahydropyridin-4-yl]-1H-indole] | 0.0035 | 0.055 | 0.066 | –
2 | CC(C)N1CCN(CCN2CCC(c3cn(-c4ccc(F)cc4)c4cc(C(F)(F)F)ccc34)CC2)C1=O [Compound 4c, 1-(4-fluorophenyl)-3-[1-[2-[3-(2-propyl)-2-imidazolidinon-1-yl]ethyl]-4-piperidyl]-6-trifluoromethyl-1H-indole] | 0.0029 | 0.091 | – | 0.28
3 | O=C1CCCN1CCN1CCC(c2cn(-c3ccc(F)cc3)c3cc(C(F)(F)F)ccc23)CC1 [Compound 4e, 1-(4-fluorophenyl)-3-[1-[2-(2-pyrrolidinon-1-yl)ethyl]-4-piperidyl]-6-trifluoromethyl-1H-indole] | 0.0028 | 0.049 | – | 0.3
4 | COc1ccc2c(C3CCN(CCN4CCN(C(C)C)C4=O)CC3)cn(-c3ccc(F)cc3)c2c1 [Compound 4i, 1-(4-fluorophenyl)-6-methyoxy-3-[1-[2-[3-(2-propyl)-2-imidazolidinon-1-yl]ethyl]-4-piperidyl]-1H-indole] | 0.0071 | 0.14 | – | 0.71
5 | CC(C)c1ccc2c(C3CCN(CCN4CCN(C(C)C)C4=O)CC3)cn(-c3ccc(F)cc3)c2c1 [Compound 5c, 1-(4-fluorophenyl)-6-(2-propyl)-3-[1-[2-[3-(2-propyl)-2-imidazolidinon-1-yl]ethyl]-4-piperidyl]-1H-indole] | 0.016 | 0.73 | – | 2
6 | CC(C)N1CCN(CCN2CCC(c3cn(-c4ccc(F)cc4)c4cc(C#N)ccc34)CC2)C1=O [Compound 5i, 6-cyano-1-(4-fluorophenyl)-3-[1-[2-[3-(2-propyl)-2-imidazolidinon-1-yl]ethyl]-4-piperidyl]-1H-indole] | 0.0086 | – | – | 1.1
7 | N#Cc1ccc2c(C3CCN(CCN4CCNC4=O)CC3)cn(-c3ccc(F)cc3)c2c1 [Compound 5j, 6-cyano-1-(4-fluorophenyl)-3-[1-[2-(2-imidazolidinon-1-yl)ethyl]-4-piperidyl]-1H-indole] | 0.013 | – | – | 1.5
8 | CC(C)N1CCN(CCN2CCN(c3cn(-c4ccc(F)cc4)c4cc(Cl)ccc34)CC2)C1=O [Compound 6a, 6-chloro-1-(4-fluorophenyl)-3-[4-[2-[3-(2-propyl)-2-imidazolidinon-1-yl]ethyl]-1-piperazinyl]-1H-indole] | 0.0027 | – | – | 0.081
9 | Cc1ccc2c(C3CCN(CCNC(=O)NC(C)C)CC3)cn(-c3ccc(F)cc3)c2c1 [Compound 9a, 1-(4-fluorophenyl)-3-[1-[2-[3-(2-propyl)-1-ureido]-1-ethyl]-4-piperidyl]-6-methyl-1H-indole] | 0.0018 | 0.076 | – | 0.3
10 | CCN(CCN1CCC(c2cn(-c3ccc(F)cc3)c3cc(Cl)ccc23)CC1)C(=O)NC(C)C [Compound 9d, 6-chloro-1-(4-fluorophenyl)-3-[1-[2-[1-ethyl-3-(2-propyl)-1-ureido]-1-ethyl]-4-piperidyl]-1H-indole] | 0.0019 | – | – | 0.15
11 | CC(C)N1CCN(CCN2CCC(c3cn(-c4ccc(F)cc4)c4cc(Cl)ccc34)CC2)C1=S [Compound 13a, 6-chloro-1-(4-fluorophenyl)-3-[1-[2-[3-(2-propyl)-2-imidazolidinthion-1-yl]ethyl]-4-piperidyl]-1H-indole] | 0.0044 | 0.11 | – | 0.27
12 | Cc1ccc2c(C3CCN(CCN4CCN(C(C)C)C4=O)CC3)cn(-c3cccs3)c2c1 [Compound 15b, 6-methyl-3-[1-[2-[3-(2-propyl)-2-imidazolidinon-1-yl]ethyl]-4-piperidyl]-1-(2-thie-nyl)-1H-indole] | 0.0067 | – | – | 2.5
13 | Cc1ccc2c(C3CCN(CCN4CCN(C(C)C)C4=O)CC3)cn(-c3ccsc3)c2c1 [Compound 15c, 6-methyl-3-[1-[2-[3-(2-propyl)-2-imidazolidinon-1-yl]ethyl]-4-piperidyl]-1-(3-thie-nyl)-1H-indole] | 0.0026 | 0.33 | – | 1
14 | Cc1ccc2c(C3CCN(CCN4CCN(C(C)C)C4=O)CC3)cn(-c3ccoc3)c2c1 [Compound 15d, 1-(3-furanyl)-6-methyl-3-[1-[2-[3-(2-propyl)-2-imidazolidinon-1-yl]ethyl]-4-piperi-dyl]-1H-indole] | 0.0093 | – | – | 4.5
15 | Cc1ccc2c(C3CCN(CCN4CCN(C(C)C)C4=O)CC3)cn(-c3ccncc3)c2c1 [Compound 15e, 6-methyl-3-[1-[2-[3-(2-propyl)-2-imidazolidinon-1-yl]ethyl]-4-piperidyl]-1-(4-pyri-dyl)-1H-indole] | 0.0076 | – | – | 3.5
16 | Cc1ccc2c(C3CCN(CCN4CCN(C(C)C)C4=O)CC3)cn(-c3ccccc3F)c2c1 [Compound 15f, 1-(2-fluorophenyl)-3-[1-[2-[3-(2-propyl)-2-imidazolidinon-1-yl]ethyl]-4-piperidyl]-6-methyl-1H-indole] | 0.0025 | 0.37 | – | 0.73
17 | Cc1ccc2c(C3CCN(CCN4CCN(C(C)C)C4=O)CC3)cn(-c3cccc(C(F)(F)F)c3)c2c1 [Compound 15i, 3-[1-[2-[3-(2-propyl)-2-imidazolidinon-1-yl]ethyl]-4-piperidyl]-6-methyl-1-(3-trifluoromethylphenyl)-1H-indole] | 0.15 | – | – | 3.2
18 | O=C1NCCN1CCN1CCC(c2cn(-c3ccccc3)c3cc(Cl)ccc23)CC1 [Compound 15m, 6-chloro-3-[1-[2-[2-imidazolidinon-1-yl]ethyl]-4-piperidyl]-1-phenyl-1H-indole] | 0.0044 | – | – | 0.41
